Legend:
Fut2^−/− mice = test: 2′-FL supplementation in chronic-binge ethanol diet (NIAAA model), ethanol-induced liver disease; assay type: in vivo, mouse
Experimental: In the 2′-fucosyllactose (2′-FL; a gift from Jennewein Biotechnologie GmbH, Germany) supplementation experiments we used a chronic-binge ethanol diet (NIAAA model). Fut2^−/− mice (10-11 weeks, male and female) were fed with Lieber-DeCarli diet with caloric intake from ethanol 0% on days 1-5 and 36% of total calories from day 6 to day 16. At day 16 in the early morning, mice were gavaged with a single dose of ethanol (5 g/kg body weight) and harvested 9 hours later. In the 2′-FL treated groups 2′-FL was added in the ethanol diet at a final concentration of 2 mg/mL and given continuously during the study period. Formalin-fixed and paraffin-embedded mouse livers were stained with hematoxylin-eosin (Leica Biosystems Inc.) using standard staining protocols. Frozen liver sections were stained with Oil Red O (Sigma-Aldrich, 00625). Biochemical assays. Levels of plasma alanine aminotransferase (ALT) were measured using infinity ALT kit (Thermo Scientific, TR71121). Triglyceride levels were measured using the Triglyceride Liquid Reagents Kit (Pointe Scientific, 51604). Reverse transcription and real-time quantitative PCR. For reverse transcription qPCR, RNA was extracted from mouse liver, and cDNAs were generated as described. DNA from mouse feces was extracted using QIAamp Fast DNA Stool kit (Qiagen, 51604). Quantitative PCR was performed with iTaq universal SYBR Green Supermix (Bio-Rad, 1725124) using a StepOnePlus thermocycler real-time PCR system. Primer sequences for mouse genes were obtained from the NIH qPrimerDepot. The values of mouse genes were normalized to 18S, while bacterial genes were normalized to 16S.

E. faecalis = test: Fecal E. faecalis and cytolysin by qPCR in chronic-binge ethanol diet-fed mice; assay type: in vivo, mouse; details: Fut2^−/− mice
Experimental: In the 2′-fucosyllactose (2′-FL; a gift from Jennewein Biotechnologie GmbH, Germany) supplementation experiments we used a chronic-binge ethanol diet (NIAAA model). Fut2^−/− mice (10-11 weeks, male and female) were fed with Lieber-DeCarli diet with caloric intake from ethanol 0% on days 1-5 and 36% of total calories from day 6 to day 16. At day 16 in the early morning, mice were gavaged with a single dose of ethanol (5 g/kg body weight) and harvested 9 hours later. In the 2′-FL treated groups 2′-FL was added in the ethanol diet at a final concentration of 2 mg/mL and given continuously during the study period.
Reverse transcription and real-time quantitative PCR. For reverse transcription qPCR, RNA was extracted from mouse liver, and cDNAs were generated as described. DNA from mouse feces was extracted using QIAamp Fast DNA Stool kit (Qiagen, 51604). Quantitative PCR was performed with iTaq universal SYBR Green Supermix (Bio-Rad, 1725124) using a StepOnePlus thermocycler real-time PCR system. Primer sequences for mouse genes were obtained from the NIH qPrimerDepot. The values of mouse genes were normalized to 18S, while bacterial genes were normalized to 16S.

[1] = tested on: cytolysin positive strain of E. faecalis; test: Enterococcus faecalis cultures, growth by optical density at 600 nm; assay type: cell-based; details: BHI media with 0, 0.25, 0.5, 1, 2 or 20 mg/mL of 2′-FL, 6 h, sampling every 30 min (FIG. 5G)
Experimental: Enterococcus faecalis cultures. A cytolysin positive strain of E. faecalis, which was isolated from feces of an ethanol-fed Atp4a^s1/s1 mouse, was cultured in BHI media with 0, 0.25, 0.5, 1, 2 or 20 mg/mL of 2′-FL in triplicate for each concentration. Sampling was taken at 30 min intervals during the course of 6 h. Cell growth was determined by measuring the optical density at 600 nm for each time-point.

CC1O[C@@H](OC2[C@H](O[C@@H]3C(CO)OC(O)C(O)[C@H]3O)OC(CO)[C@H](O)[C@@H]2O)[C@@H](O)C(O)[C@@H]1O (stereo partly shown) [2′-FL, 2′-fucosyllactose]
Metabolism of ethanol (plasma ethanol, hepatic Adh1 mRNA, hepatic Cyp2e1 mRNA) (Fut2^−/− mice; 2′-FL 2 mg/mL in diet for 2 weeks (FIG. 4G-4I)): without affecting | Plasma alanine aminotransferase (ALT) (Fut2^−/− mice; 2′-FL 2 mg/mL in diet for 2 weeks, compared with ethanol diet alone (FIG. 4A)): lower | Hepatic triglyceride (Fut2^−/− mice; 2′-FL 2 mg/mL in diet for 2 weeks, compared with ethanol diet alone (FIG. 4B)): lower | Liver histopathology (H&E-stained liver tissue) (Fut2^−/− mice; 2′-FL 2 mg/mL in diet for 2 weeks, compared with ethanol diet alone (FIG. 4C)): improvement | Hepatic Cxcl1 mRNA level (Fut2^−/− mice; 2′-FL 2 mg/mL in diet for 2 weeks, compared with ethanol diet alone (FIG. 4D)): decreased | Hepatic Cxcl2 mRNA level (Fut2^−/− mice; 2′-FL 2 mg/mL in diet for 2 weeks, compared with ethanol diet alone (FIG. 4E)): decreased | Oil Red O staining of liver tissue (Fut2^−/− mice; 2′-FL 2 mg/mL in diet for 2 weeks, compared with ethanol diet alone (FIG. 4F)): improvement | Intestinal amount of E. faecalis (fecal E. faecalis, qPCR) (E. faecalis; chronic-binge ethanol diet with or without 2′-FL for 2 weeks (FIG. 5E)): decreased | Fecal cytolysin (qPCR) (E. faecalis; chronic-binge ethanol diet with or without 2′-FL for 2 weeks (FIG. 5F)): decreased | E. faecalis growth (OD600) [1]: not affected
